In experiment [1] the target is T1, phospho-Tau (Ser404) (Mus musculus, UniProt P10637).
T1 construct: host or cells: ST HDH Q7/7 mouse striatal cell line
Briefly: Phospho-Tau (Ser404) immunocytochemistry in STHdh 7/7 cells. The class given is cell-based. The text has this: Effect of Compound 4 on Phospho-Tau (Ser396) levels - ST HDH Q7/7 (CH00097, Coriell Institute) striatal derived cell line from a knock in transgenic mouse containing HTT loci with a humanized Exon 1 containing 7 polyglutamine repeats. Diffuse mHTT quantified with immunocytochemistry as described in Example 33 with the exception that instead of 3B5H10 antibody for staining mHTT, phospho-Tau (Ser404) polyclonal antibody (ThermoFisher, Catalog 44-758G) was used to stain phospho-Tau (Ser396) and no heat shock was used.

In experiment [2] the test system is STHdh 111/111. Briefly: Morphology of striatal cells expressing mutated huntingtin. The format is cell-based, mouse. Particulars: treated versus not treated STHdh 111/111.
The test system of experiment [3] is C. elegans. Briefly: C. elegans lifespan assay (Automated Lifespan Machine). The format is in vivo. As for the experimental part: Experimental Design: The lifespan assay was initiated by expanding all replicate groups to more than 1000 worms, then synchronizing by bleaching and allowing larval worms to hatch and arrest. To eliminate the effect of bacterial metabolism and growth on lifespan, synchronized worms were only exposed to dead food bacteria. To suppress progeny, worms are transferred to media containing 5-Fluorodeoxyuridine (FUdR) within 54-60 hours post plating. Worms are inspected at 24 and48 hours after this transfer to confirm infertility. Finally, the worms are inspected for general health and morphology before transferring to scanner plates. The scanner plates are incubated for an additional 2 days and inspected again before loading on to scanners. To understand the physiological impact of either genetic variation or pharmacological treatment on aging, it is crucial to use quantitative models. The analysis of lifespan data is grounded in the study of two mathematical functions: the survival curve and the hazard function. The survival curve (Figure 54) describes the fraction of a tested population that remains alive over time. The hazard function (Figure 55) is related to the survival curve and provides an intuitive measure of the risk of death. This function describes the probability that atypical individual who is currently alive will soon die, providing a clear visualization of the way a treatment may change patterns in mortality. To obtain high-resolution lifespan data and eliminate confounding factors such as worm handling and operator bias, lifespan data was collected using an Automated Lifespan Machine (ALM). Three biological replicates, derived from synchronizing three independently-maintained lines of N2 worms, were distributed across scanner instruments. Images of the worms were then collected for the next 35 days with no interruption or manipulations. Some plates were excluded after quality checks, but plate number and worm counts for all replicates exceeded the threshold for statistical significance (Table 32, row 1).Lifespan data are represented as the percent of worms surviving over time and the profile of this curve can be modeled by the Kaplan-Meier Estimate of Survival function (Figure 54). The survival curves can be compared by several statistics including mean, median, and maximum lifespan (Table 32), as well as the age of worms at a specific percent survival (Table 34). However, to determine whether one treatment group lived longer than another, survival curves are holistically compared using a log-rank test (Table 33). In this study, all pairwise comparisons between conditions were statistically significant. Tables 32 to 34 detail the raw measurements, calculations, and statistical analysis related to the survival curve in Figure 54. Lifespan is counted with day 0 set at day 1 of adulthood. No death times are recorded until worms are placed on the scanner on day 8 so earlier deaths are excluded from calculations of mean and median. Median lifespan is equal to the time at which 50% of the subjects have died. Mean lifespan is calculated from the area under the survival curve. Maximum lifespan is equal to 95th percentile of lifespans in each group. C.I.: Confidence Interval. See Figure 55 and Table 33 for statistical analysis Table 33: Pairwise statistical analysis of survival curves.

For experiment [4], the system named is C. elegans. The experiment is described as follows: C. elegans healthspan, Worm Activity (aggregate movement). The format is in vivo. The text has this: Background: To measure healthspan, active worms were identified using the ALM scanner images from the lifespan assay. The worms' spatial location on the plate was quantified throughout their lifespan to assess healthspan. Worm Activity serves as a proxy for animal health. Changes in spatial distribution of the worms between time points is used to derive aggregate movement for the population over time.
Worm Activity is described by two complementary measurements of aggregate movement: 1) Centroid Distance calculates a geometric center for each individual worm, and then measures the minimum collective distance that a group of worms moved between time points. It achieves measurement of the changes in spatial distribution betweentime-points. 2). Spatial Distribution uses changes in worm contours between time points to measure the changes in the spatial distribution of the worms' bodies. The normalized distribution of these distances in the population provides a measure of how much the group of worms altered their positions and posture on the plate between two time-points. For both of these activity metrics, a plot with higher numbers indicates good health, and all measures are normalized to fall between 0 and 1. All measurements are based on worms that are still alive and moving at the time of quantification. […]

Experiment [5] addresses T2, Wild type (wt) α-Synuclein (Homo sapiens, UniProt P37840).
T2 construct: purchased rPeptide, Watkinsville, Georgia S-1001-2
Briefly: Dynamic Light Scattering (DLS), induced aggregation. The class given is biochemical.

T1 sequence (P10637 whole entry): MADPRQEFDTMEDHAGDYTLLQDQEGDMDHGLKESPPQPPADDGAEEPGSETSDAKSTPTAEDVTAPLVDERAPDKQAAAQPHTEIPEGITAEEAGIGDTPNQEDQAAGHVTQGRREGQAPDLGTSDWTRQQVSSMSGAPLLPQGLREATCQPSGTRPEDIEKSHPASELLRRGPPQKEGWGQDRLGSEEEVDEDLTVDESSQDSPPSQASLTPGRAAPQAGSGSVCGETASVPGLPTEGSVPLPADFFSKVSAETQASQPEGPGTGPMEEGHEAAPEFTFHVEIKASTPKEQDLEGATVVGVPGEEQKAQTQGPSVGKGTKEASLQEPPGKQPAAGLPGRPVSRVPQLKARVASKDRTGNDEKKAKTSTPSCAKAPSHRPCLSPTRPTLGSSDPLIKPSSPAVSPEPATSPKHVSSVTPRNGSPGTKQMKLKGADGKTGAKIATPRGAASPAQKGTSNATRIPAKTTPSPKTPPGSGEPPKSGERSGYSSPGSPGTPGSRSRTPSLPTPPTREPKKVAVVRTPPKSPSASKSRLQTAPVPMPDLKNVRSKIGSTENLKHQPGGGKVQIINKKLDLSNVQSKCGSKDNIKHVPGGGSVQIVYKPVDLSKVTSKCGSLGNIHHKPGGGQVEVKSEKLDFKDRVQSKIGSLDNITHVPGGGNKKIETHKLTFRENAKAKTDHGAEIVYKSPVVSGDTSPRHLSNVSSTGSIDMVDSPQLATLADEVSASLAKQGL

As for `CCc1c(C)[nH]c2ccc(C(=O)NCCN(CC)CC)cc12` [Compound 4, N-(2-(diethylamino)ethyl)-3-ethyl-2-methyl-1H-indole-5-carboxamide], in experiment [1] (10 µM, no heat shock, versus untreated STHdh 7/7), the “Phospho-Tau (Ser404) reduction” value is recorded as 40%. The “Phospho-Tau (Ser404) reduction with autophagy inhibitor” value in experiment [1] (10 mM ammonium chloride) was “could not reduce”. In addition, the cell morphology entry in experiment [2] is “improved cell viability, dendrite outgrowth and increased cell size”. In experiment [3] (200 nM), the “Age at 25% mortality” value came out at 21.42 days, the “Age at 50% mortality” value is 26.16 days, the “Age at 75% mortality” value is given as 29.57 days and the “Age at 90% mortality” value is 31.75 days. In addition, in experiment [3] (200 nM), the “Age at 100% mortality” value came to 39.46 days. The same compound gave a Median lifespan in experiment [3] (200nM (vehicle control 24.3)) of 26.2 days. The same compound showed a Mean lifespan in experiment [3] (200nM (vehicle control 24.7)) of 25.7. In experiment [3] (200nM (vehicle control 34.9), 95th percentile), the Maximum lifespan came out at 33.7 days. Besides, in experiment [3] (2 µM), the “Age at 25% mortality” value is 23.9 days, the “Age at 50% mortality” value is 27.54 days, the “Age at 75% mortality” value turned out to be 29.41 days and the “Age at 90% mortality” value is listed as 31.23 days. Moreover, the “Age at 100% mortality” value in experiment [3] (2 µM) is 39.42 days. The compound also showed a Median lifespan in experiment [3] (2µM (vehicle control 24.3)) of 27.6 days. In experiment [4] (high dose (2 µM), after a slower start), the “aggregate movement (Centroid Distance, Spatial Distribution)” value was “even more elevated movement”. Also, the “aggregate movement (Centroid Distance, Spatial Distribution)” value in experiment [4] (low dose (200 nM), over the lifespan) is recorded as “consistently higher aggregate movement than control”. The “oligomerization of wt α-Synuclein” value in experiment [5] (Compound 4 solved in methanol) is on record as “does not oligomerize”. In addition, in experiment [5] (by volume, 70 µM equimolar Compound 4 solved in methanol), the “% Volume, Peak 1” value is 99,4%.

(Values after patent EP4140481A1, “PROTEIN-OLIGOMER BINDING AGENTS AND THERAPEUTIC USES THEREOF” (Galyan Bio, Inc., priority 2021, dated 2023).)
